Data: US20240300886A1, “ARYLCYCLOHEXYLAMINE DERIVATIVES AND THEIR USE IN THE TREATMENT OF PSYCHIATRIC DISORDERS” (GILGAMESH PHARMACEUTICALS, INC., priority 2021, published 2024)

Experiment: Metabolic stability in dog liver microsomes (DLM)
Format: in vitro ADME, beagle dogs
Details: male, beagle, dog, pooled dog liver microsomes, pH 7.4, 1 μM compound, 0.50 mg protein/mL, NADPH
Protocol: (§1) DLM Stability. Pooled DLM from male beagle dogs (XenoTech D1000) were used. Microsomal incubations were carried out in multi-well plates. Liver microsomal incubation medium consisted of PBS (100 mM, pH 7.4), MgCl2 (1 mM), and NADPH (1 mM), with 0.50 mg of liver microsomal protein per mL. Control incubations were performed by replacing the NADPH-cofactor system with PBS. Test compounds (1 μM, final solvent concentration 1.0%) were incubated with microsomes at 37° C. with constant shaking. Six time points over 60 minutes were analyzed, with 60 μL aliquots of the reaction mixture being drawn at each time point. The reaction aliquots were stopped by adding 180 μL of cold (4° C.) acetonitrile containing 200 ng/mL tolbutamide and 200 ng/mL labetalol as internal standards (TS), followed by shaking for 10 minutes, and then protein sedimentation by centrifugation at 4,000 rpm for 20 minutes at 4° C. Supernatant samples (80 μL) were diluted with water (240 μL) and analyzed for parent compound remaining using a fit-for-purpose liquid chromatography-tandem mass spectrometry (LC-MS/MS) method.
(§2) Data Analysis. The elimination constant (kel), half-life (t1/2) and intrinsic clearance (Clint) were determined in a plot of […] versus time, using linear regression analysis.
`N[C@]1(c2ccc(F)cc2)CCCCC1=O` [Compound 1S, (S)-2-amino-2-(4-fluorophenyl)cyclohexan-1-one] showed a half-life at 1 μM greater than 145 min and a microsomal CLint at 1 μM of less than 9.6 µL/min/mg. Work on `CN[C@]1(c2ccc(F)cc2)CCCCC1=O` [Compound 2S, (S)-2-(4-fluorophenyl)-2-(methylamino)cyclohexan-1-one] yielded a half-life at 1 μM of 18.2 min and a microsomal CLint at 1 μM of 76 µL/min/mg. In the case of `N[C@]1(c2cccc(F)c2)CCCCC1=O` [Compound 3S], the half-life at 1 μM is reported as 51.7 min and the microsomal CLint at 1 μM is reported as 26.8 µL/min/mg.

Experiment: Metabolic stability in cynomolgus monkey liver microsomes (CLM)
Format: in vitro ADME, cynomolgus monkeys
Details: male, cynomolgus monkey, pooled cynomolgus monkey liver microsomes, pH 7.4, 1 μM compound, 0.50 mg protein/mL, NADPH
Protocol: as §1, with “CLM” for “DLM”, “cynomolgus monkeys (Corning 452413)” for “beagle dogs (XenoTech D1000)”, “(IS),” for “(TS),”
as §2
Work on `N[C@]1(c2ccc(F)cc2)CCCCC1=O` [Compound 1S, (S)-2-amino-2-(4-fluorophenyl)cyclohexan-1-one] yielded a half-life at 1 μM greater than 145 min and a microsomal CLint at 1 μM of less than 9.6 µL/min/mg. `CN[C@]1(c2ccc(F)cc2)CCCCC1=O` [Compound 2S, (S)-2-(4-fluorophenyl)-2-(methylamino)cyclohexan-1-one] gave a half-life at 1 μM of 38.3 min and a microsomal CLint at 1 μM of 36.1 µL/min/mg. `N[C@]1(c2cccc(F)c2)CCCCC1=O` [Compound 3S] showed a half-life at 1 μM of 83.7 min and a microsomal CLint at 1 μM of 16.6 µL/min/mg.

Experiment: Oral bioavailability in mice, Method B (plasma and brain PK)
Format: in vivo, C57BL/6 mice
Details: male, C57BL/6; mouse brain, Method B, 1 mg/kg iv; read-out: t1/2 (iv)
Protocol: Animals. Male C57BL/6 mice were used in these studies. Animals were randomly assigned to treatment groups and were fasted for 4 h before dosing.
Drugs. Test compounds were dissolved in a vehicle consisting of normal saline (for compounds used as the HCl salt) or normal saline slightly acidified with aq. HCl (for freebase compounds). They were then administered intravenously (iv) or orally (po) at a dose of 1 or 10 mg/kg (calculated based on freebase), as indicated, and at a volume of 5 mL/kg body weight. Compounds were tested as the racemates or pure enantiomers, as indicated.
Sample Collection and Bioanalysis. Blood samples (approximately 60 μL) were collected under light isoflurane anesthesia (Surgivet®) from the retro orbital plexus at 0.08, 0.25, 0.5, 1, 2, 4, 8, and 24 h (4 animals per time point). Immediately after blood collection, plasma was harvested by centrifugation at 4,000 rpm for 10 min at 4° C. and samples were stored at −70±10° C. until bioanalysis. Following blood collection, animals were immediately sacrificed, the abdominal vena-cava was cut open, and the whole body was perfused from the heart using 10 mL of normal saline, and brain samples were collected from all animals. After isolation, brain samples were rinsed three times in ice-cold normal saline (for 5-10 seconds/rinse using ˜5-10 mL, normal saline in disposable petri dish for each rinse) and dried on blotting paper. Brain samples were homogenized using ice-cold phosphate-buffered saline (pH 7.4). Total homogenate volume was three times the tissue weight. All homogenates were stored at −70±10° C. until bioanalysis. For bioanalysis, 25 μL aliquots of plasma/brain study samples or spiked plasma/brain calibration standards were added to individual pre-labeled micro-centrifuge tubes followed by 100 μL of an internal standard solution (glipizide, 500 ng/mL in acetonitrile) except for blanks, where 100 μL of acetonitrile was added. Samples were vortexed for 5 minutes and then centrifuged for 10 minutes at 4,000 rpm at 4° C. Following centrifugation, 100 μL of each clear supernatant was transferred to a 96 well plate and analyzed with a fit-for-purpose LC-MS/MS method, with authentic samples of each analyte used for calibration and identification.
Data Analysis. Pharmacokinetic parameters were estimated using the non-compartmental analysis tool of Phoenix® WinNonlin software (Ver 8.0).
For `N[C@]1(c2ccc(F)cc2)CCCCC1=O` [Compound 1S, (S)-2-amino-2-(4-fluorophenyl)cyclohexan-1-one], the half-life was 36.6 min. `CN[C@]1(c2ccc(F)cc2)CCCCC1=O` [Compound 2S, (S)-2-(4-fluorophenyl)-2-(methylamino)cyclohexan-1-one] gave a half-life of 21.6 min. `N[C@]1(c2cccc(F)c2)CCCCC1=O` [Compound 3S] gave a half-life of 26.4 min.

Same assay, conditions: male, C57BL/6; mouse brain, Method B, 1 mg/kg po
Work on `N[C@]1(c2ccc(F)cc2)CCCCC1=O` [Compound 1S, (S)-2-amino-2-(4-fluorophenyl)cyclohexan-1-one] yielded a Cmax of 82.2 ng/g. `CN[C@]1(c2ccc(F)cc2)CCCCC1=O` [Compound 2S, (S)-2-(4-fluorophenyl)-2-(methylamino)cyclohexan-1-one] showed a Cmax of 80.4 ng/g. For `N[C@]1(c2cccc(F)c2)CCCCC1=O` [Compound 3S], the Cmax was 112 ng/g.

Same assay, conditions: male, C57BL/6; mouse brain, Method B, 1 mg/kg po; read-out: t1/2 (po)
`CN[C@]1(c2ccc(F)cc2)CCCCC1=O` [Compound 2S, (S)-2-(4-fluorophenyl)-2-(methylamino)cyclohexan-1-one] gave a half-life of 42 min. Compound `N[C@]1(c2cccc(F)c2)CCCCC1=O` [Compound 3S] has a half-life of 40.8 min.

Same assay, conditions: male, C57BL/6; mouse plasma, Method B, 1 mg/kg iv; read-out: t1/2 (iv)
`N[C@]1(c2ccc(F)cc2)CCCCC1=O` [Compound 1S, (S)-2-amino-2-(4-fluorophenyl)cyclohexan-1-one] gave a half-life of 86.4 min. For `CN[C@]1(c2ccc(F)cc2)CCCCC1=O` [Compound 2S, (S)-2-(4-fluorophenyl)-2-(methylamino)cyclohexan-1-one], the half-life was 54.6 min. For `N[C@]1(c2cccc(F)c2)CCCCC1=O` [Compound 3S], the half-life was 101 min.

Same assay, conditions: male, C57BL/6; mouse plasma, Method B, 1 mg/kg iv; values represent AUC0-last; read-out: AUC0-inf (iv) (converted)
Work on `N[C@]1(c2ccc(F)cc2)CCCCC1=O` [Compound 1S, (S)-2-amino-2-(4-fluorophenyl)cyclohexan-1-one] yielded an AUC(0-inf) of 501 ng·h/mL. `CN[C@]1(c2ccc(F)cc2)CCCCC1=O` [Compound 2S, (S)-2-(4-fluorophenyl)-2-(methylamino)cyclohexan-1-one] gave an AUC(0-inf) of 119 ng·h/mL. `N[C@]1(c2cccc(F)c2)CCCCC1=O` [Compound 3S] gave an AUC(0-inf) of 608 ng·h/mL.

Same assay, conditions: male, C57BL/6; mouse plasma, Method B, 1 mg/kg po
With `N[C@]1(c2ccc(F)cc2)CCCCC1=O` [Compound 1S, (S)-2-amino-2-(4-fluorophenyl)cyclohexan-1-one] the Cmax was 394 ng/mL. In the case of `CN[C@]1(c2ccc(F)cc2)CCCCC1=O` [Compound 2S, (S)-2-(4-fluorophenyl)-2-(methylamino)cyclohexan-1-one], the Cmax is reported as 51.7 ng/mL. Compound `N[C@]1(c2cccc(F)c2)CCCCC1=O` [Compound 3S] has a Cmax of 640 ng/mL.

Same assay, conditions: male, C57BL/6; mouse plasma, Method B, 1 mg/kg po; read-out: t1/2 (po)
Work on `N[C@]1(c2ccc(F)cc2)CCCCC1=O` [Compound 1S, (S)-2-amino-2-(4-fluorophenyl)cyclohexan-1-one] yielded a half-life of 82.2 min. Work on `CN[C@]1(c2ccc(F)cc2)CCCCC1=O` [Compound 2S, (S)-2-(4-fluorophenyl)-2-(methylamino)cyclohexan-1-one] yielded a half-life of 50.4 min. `N[C@]1(c2cccc(F)c2)CCCCC1=O` [Compound 3S] gave a half-life of 29.4 min.

Same assay, conditions: male, C57BL/6; mouse plasma, Method B, 1 mg/kg po; values represent AUC0-last; read-out: AUC0-inf (po) (converted)
For `N[C@]1(c2ccc(F)cc2)CCCCC1=O` [Compound 1S, (S)-2-amino-2-(4-fluorophenyl)cyclohexan-1-one], the AUC(0-inf) was 470 ng·h/mL. In the case of `CN[C@]1(c2ccc(F)cc2)CCCCC1=O` [Compound 2S, (S)-2-(4-fluorophenyl)-2-(methylamino)cyclohexan-1-one], the AUC(0-inf) is reported as 46.6 ng·h/mL. Compound `N[C@]1(c2cccc(F)c2)CCCCC1=O` [Compound 3S] has an AUC(0-inf) of 542 ng·h/mL.

Same assay, conditions: mouse brain, Method B, 1 mg/kg iv; values represent AUC0-last
In the case of `N[C@]1(c2ccc(F)cc2)CCCCC1=O` [Compound 1S, (S)-2-amino-2-(4-fluorophenyl)cyclohexan-1-one], the “AUC0-inf (iv)” value is reported as 14,776 ng*min/g. For `CN[C@]1(c2ccc(F)cc2)CCCCC1=O` [Compound 2S, (S)-2-(4-fluorophenyl)-2-(methylamino)cyclohexan-1-one], the “AUC0-inf (iv)” value was 21,532 ng*min/g. In the case of `N[C@]1(c2cccc(F)c2)CCCCC1=O` [Compound 3S], the “AUC0-inf (iv)” value is reported as 18,797 ng*min/g.

Same assay, conditions: mouse brain, Method B, 1 mg/kg po; values represent AUC0-last
In the case of `N[C@]1(c2ccc(F)cc2)CCCCC1=O` [Compound 1S, (S)-2-amino-2-(4-fluorophenyl)cyclohexan-1-one], the “AUC0-inf (po)” value is reported as 6,557 ng*min/g. For `CN[C@]1(c2ccc(F)cc2)CCCCC1=O` [Compound 2S, (S)-2-(4-fluorophenyl)-2-(methylamino)cyclohexan-1-one], the “AUC0-inf (po)” value was 4,264 ng*min/g. In the case of `N[C@]1(c2cccc(F)c2)CCCCC1=O` [Compound 3S], the “AUC0-inf (po)” value is reported as 7,418 ng*min/g.

Same assay, conditions: mouse brain, Method B, 1 mg/kg; calculated based on brain exposure (AUC0-last)
`N[C@]1(c2ccc(F)cc2)CCCCC1=O` [Compound 1S, (S)-2-amino-2-(4-fluorophenyl)cyclohexan-1-one] showed an F of 44%. Work on `CN[C@]1(c2ccc(F)cc2)CCCCC1=O` [Compound 2S, (S)-2-(4-fluorophenyl)-2-(methylamino)cyclohexan-1-one] yielded an F of 20%. `N[C@]1(c2cccc(F)c2)CCCCC1=O` [Compound 3S] showed an F of 39%.

Same assay, conditions: mouse plasma, Method B, 1 mg/kg; based on AUC0-last
`N[C@]1(c2ccc(F)cc2)CCCCC1=O` [Compound 1S, (S)-2-amino-2-(4-fluorophenyl)cyclohexan-1-one] gave an F of 94%. In the case of `CN[C@]1(c2ccc(F)cc2)CCCCC1=O` [Compound 2S, (S)-2-(4-fluorophenyl)-2-(methylamino)cyclohexan-1-one], the F is reported as 39%. In the case of `N[C@]1(c2cccc(F)c2)CCCCC1=O` [Compound 3S], the F is reported as 89%.
